Where two headings read alike, the source gives them in different places. Blank lines part the entries; values can stand above or below the compound they belong to.
Assays:
HCV [1] = conditions: chimpanzee, 7 days, cited from earlier work
[2] = target: T1, Hepatitis C virus NS5B polymerase (Hepatitis C virus genotype 1b, UniProt Q9WMX2); conditions: compound tested as its triphosphate; read-out: NS5b IC50 of NTP; cited from earlier work
T1 construct: Hepatitis C virus NS5B polymerase is an RNA-dependent RNA polymerase (RdRp)
T1 sequence (Q9WMX2 2420-3010): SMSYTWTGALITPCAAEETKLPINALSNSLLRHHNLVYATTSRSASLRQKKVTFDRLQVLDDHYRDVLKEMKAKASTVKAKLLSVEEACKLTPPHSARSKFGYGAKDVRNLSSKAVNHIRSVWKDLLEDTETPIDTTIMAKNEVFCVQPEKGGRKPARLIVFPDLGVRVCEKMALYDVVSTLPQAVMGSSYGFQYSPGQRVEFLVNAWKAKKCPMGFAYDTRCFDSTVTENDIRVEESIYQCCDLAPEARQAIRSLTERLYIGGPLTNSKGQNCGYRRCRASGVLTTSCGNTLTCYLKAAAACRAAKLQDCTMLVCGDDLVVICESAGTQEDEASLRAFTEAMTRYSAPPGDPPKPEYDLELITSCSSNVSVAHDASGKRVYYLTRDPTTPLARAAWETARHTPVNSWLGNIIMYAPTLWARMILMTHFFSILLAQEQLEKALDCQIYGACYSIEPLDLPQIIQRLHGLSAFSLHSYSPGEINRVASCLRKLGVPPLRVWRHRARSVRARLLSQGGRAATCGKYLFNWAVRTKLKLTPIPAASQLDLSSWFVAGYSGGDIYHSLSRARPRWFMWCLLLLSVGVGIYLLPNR

Replicon = conditions: cited from earlier work
HCV [3] = conditions: phase 2 study, 1500 mg BID for 14 days; cited from earlier work
[4] = rat, in vivo, po, 50 mg/kg
[5] = rat, in vivo, po, 50 mg/kg; cited from earlier work

SMILES: C[C@@]1(O)[C@H](O)[C@@H](CO)O[C@H]1n1ccc2c(N)ncnc21 [MK-0608]
- reduction in viral titre (HCV [1]; intravenous 2 mg/kg/day): > 5 log10

SMILES: C[C@@]1(F)[C@H](O)[C@@H](CO)O[C@H]1n1ccc(=O)[nH]c1=O [RO2433, 2′-deoxy-2′-fluoro-2′-C-methyl-uridine]
- IC50 [2]: 520 nM
- EC50 (Replicon): > 100000 nM
- activity in the replicon assay (Replicon): inactive

SMILES: CC(C)[C@H](N)C(=O)O[C@@H]1[C@@H](CO)O[C@@H](n2ccc(N)nc2=O)[C@]1(C)O [NM283]
- reduction in viral titre (HCV [1]; 16.6 mg/kg/day): 1.15 log10

SMILES: CC(C)C(=O)OC[C@@]1(N=[N+]=[N-])O[C@@H](n2ccc(N)nc2=O)[C@H](OC(=O)C(C)C)[C@@H]1OC(=O)C(C)C [Compound 81626]
- mean reduction in serum viral titre (HCV [3]): 1.2 log10

SMILES: C[C@@]1(F)[C@H](O)[C@@H](CO)O[C@H]1n1ccc(N)nc1=O [PSI-6130, β-D-2′-deoxy-2′-fluoro-2′-C-methylcytidine]
- IC50 [2]: 130 nM
- EC50 (Replicon): 600 nM
- activity in the replicon assay (Replicon): potent

SMILES: COC(=O)[C@H](C)NP(=O)(OC[C@H]1O[C@@H](n2ccc(=O)[nH]c2=O)[C@](C)(F)[C@@H]1O)Oc1ccccc1 (stereo partly drawn) [PSI-7672]
- EC50 (Replicon): 1600 nM

- liver triphosphate level converted to molar units [4]: 5.1 nmol/g
SMILES: CC(C)OC(=O)[C@H](C)NP(=O)(OC[C@H]1O[C@@H](n2ccc(=O)[nH]c2=O)[C@](C)(F)[C@@H]1O)Oc1ccccc1 (stereo partly drawn) [PSI-7851]
- liver triphosphate levels [5]: 2550 ng/g

From patent US20100305060A1, “Nucleoside Prodrugs and Uses Thereof” (Ligand Pharmaceuticals Incorporated, priority 2007, published 2010)
